Assay results as given in patent US20090130273A1, “FREEZE DRIED SUCRALOSE” (TATE & LYLE TECHNOLOGY LIMITED, priority 2007, published 2009).

Key:
[1] = Moisture absorption as a function of relative humidity; format: physicochemical; conditions: for moisture absorption behaviour compared with the other samples: RH ramp 0 to 80 % and back down to 20 %
Protocol: Sucralose beads prepared from seeded and unseeded aqueous sucralose solutions using the liquid nitrogen technique described above were evaluated to determine degree of moisture absorption as a function of relative humidity (% RH). A sample of commercial sucralose needles (“neat” sucralose) was also evaluated in parallel, and the results for these runs are shown in Table 1. Each column represents a ramping up of % RH from zero to 80, followed by ramping back down to 20.

[2] = Thermogravimetric analysis, stability at high temperature; format: physicochemical; conditions: mass as a function of time at 90° C. in nitrogen
Protocol: Thermogravimetric analysis was performed on commercial, seeded and unseeded samples made as described above in order to assess stability of the products at high temperature. The results are shown in FIGS. 4, 5 and 6, respectively. In each case, the mass of a sample was followed as a function of time at 90° C. in nitrogen, recorded as percent of original mass remaining. The vertical lines represent the point of the mass curve representing the halfway point of mass loss, and thus may be used as a measure of how rapidly decomposition set in. […] This further bears out the fact, noted above in view of the moisture absorption results, that these samples represent three different forms of sucralose.

Which results are given for `OCC1O[C@@H](O[C@]2(CCl)O[C@@H](CCl)C(O)C2O)C(O)C(O)[C@H]1Cl` (stereo in doubt) [Not Seeded, 4,1′,6′-trichloro-4,1′,6′-trideoxygalactosucrose]?
Mass Increase (%) ([1]; 0 % RH, start of upward ramp): 0.00%; Mass Increase (%) ([1]; 20 % RH, ramping back down): 0.60%; Mass Increase (%) ([1]; 20 % RH, ramping up): 1.09%; Mass Increase (%) ([1]; 30 % RH, ramping back down): 0.81%; Mass Increase (%) ([1]; 30 % RH, ramping up): 2.21%; Mass Increase (%) ([1]; 40 % RH, ramping back down): 1.15%; Mass Increase (%) ([1]; 40 % RH, ramping up): 3.41%; Mass Increase (%) ([1]; 50 % RH, ramping back down): 2.01%; Mass Increase (%) ([1]; 50 % RH, ramping up): 4.91%; Mass Increase (%) ([1]; 60 % RH, ramping back down): 2.91%; Mass Increase (%) ([1]; 60 % RH, ramping up): 6.21%; Mass Increase (%) ([1]; 70 % RH, ramping back down): 4.11%; Mass Increase (%) ([1]; 70 % RH, ramping up): 6.71%; Mass Increase (%) ([1]; 80 % RH, top of ramp): 7.11%; moisture absorption behaviour compared with the other samples ([1]; listed as unseeded product): significantly higher moisture absorption; onset of decomposition (halfway point of mass loss) ([2]; listed as unseeded product): intermediate between the two

For `OCC1O[C@@H](O[C@]2(CCl)O[C@@H](CCl)C(O)C2O)C(O)C(O)[C@H]1Cl` (stereo partly drawn) [Neat, 4,1′,6′-trichloro-4,1′,6′-trideoxygalactosucrose, reference compound], which “Mass Increase (%)” value ([1]; 0 % RH, start of upward ramp) is on record?
Its value is 0.00%.

And the “Mass Increase (%)” value ([1]; 20 % RH, ramping back down)?
The value was 0.00%.

What about the “Mass Increase (%)” value ([1]; 20 % RH, ramping up) of the same compound?
The value was 0.00%.

And the “Mass Increase (%)” value ([1]; 30 % RH, ramping back down)?
Its value is 0.00%.

What about the “Mass Increase (%)” value ([1]; 30 % RH, ramping up) of the same compound?
Its value is 0.00%.

What about the “Mass Increase (%)” value ([1]; 40 % RH, ramping back down) of the same compound?
Its value is 0.00%.

And the “Mass Increase (%)” value ([1]; 40 % RH, ramping up)?
Its value is 0.00%.

And the “Mass Increase (%)” value ([1]; 50 % RH, ramping back down)?
Its value is 0.00%.

And the “Mass Increase (%)” value ([1]; 50 % RH, ramping up)?
The value was 0.00%.

And the “Mass Increase (%)” value ([1]; 60 % RH, ramping back down)?
Its value is 0.00%.

What about the “Mass Increase (%)” value ([1]; 60 % RH, ramping up) of the same compound?
Its value is 0.00%.

And the “Mass Increase (%)” value ([1]; 70 % RH, ramping back down)?
Its value is 0.00%.

And the “Mass Increase (%)” value ([1]; 70 % RH, ramping up)?
Its value is 0.00%.

And the “Mass Increase (%)” value ([1]; 80 % RH, top of ramp)?
Its value is 0.10%.

And the “Mass Increase (%)” value ([1]; 80 % RH, top of ramp, listed as neat (commercial) product)?
The value was 0.1%.

What about the “onset of decomposition (halfway point of mass loss)” value ([2]; listed as commercial sample) of the same compound?
Its value is “earliest to show significant decomposition”.

For `OCC1O[C@@H](O[C@]2(CCl)O[C@@H](CCl)C(O)C2O)C(O)C(O)[C@H]1Cl` (stereo partly drawn) [Seeded, 4,1′,6′-trichloro-4,1′,6′-trideoxygalactosucrose], which “Mass Increase (%)” value ([1]; 0 % RH, start of upward ramp) is on record?
Its value is 0%.

And the “Mass Increase (%)” value ([1]; 20 % RH, ramping back down)?
Its value is 0.02%.

What about the “Mass Increase (%)” value ([1]; 20 % RH, ramping up) of the same compound?
The value was 0.01%.

And the “Mass Increase (%)” value ([1]; 30 % RH, ramping back down)?
The value was 0.02%.

What about the “Mass Increase (%)” value ([1]; 30 % RH, ramping up) of the same compound?
The value was 0.02%.

And the “Mass Increase (%)” value ([1]; 40 % RH, ramping back down)?
Its value is 0.02%.

And the “Mass Increase (%)” value ([1]; 40 % RH, ramping up)?
Its value is 0.02%.

And the “Mass Increase (%)” value ([1]; 50 % RH, ramping back down)?
The value was 0.03%.

And the “Mass Increase (%)” value ([1]; 50 % RH, ramping up)?
The value was 0.02%.

What about the “Mass Increase (%)” value ([1]; 60 % RH, ramping back down) of the same compound?
Its value is 0.03%.

And the “Mass Increase (%)” value ([1]; 60 % RH, ramping up)?
Its value is 0.03%.

What about the “Mass Increase (%)” value ([1]; 70 % RH, ramping back down) of the same compound?
Its value is 0.04%.

And the “Mass Increase (%)” value ([1]; 70 % RH, ramping up)?
The value was 0.03%.

What about the “Mass Increase (%)” value ([1]; 80 % RH, top of ramp) of the same compound?
The value was 0.04%.

What about the “moisture absorption behaviour compared with the other samples” value ([1]; listed as seeded product) of the same compound?
Its value is “maximum value was less than half of that seen with the commercial product”.

And the “onset of decomposition (halfway point of mass loss)” value ([2]; listed as seeded product)?
Its value is “took considerably longer”.
